Reference: patent US20210145768A1, “MODULATING IMMUNE RESPONSE VIA TARGETING OF OLFACTORY RECEPTOR ACTIVITY” (La Jolla Institute for Allergy and Immunology, priority 2018, published 2021)

Experiments:
OR6A2 = OR6A2 expression in hMDMs (real time PCR, flow cytometry); type: cell-based, human; conditions: LPS + octanal
Protocol: (§1) BMDMs and hMDMs were incubated in culture media for 12 h at 37° C. and 5% CO2 with Oct, (10 μM), LPS (500 ng/mL) alone or combined with Oct (LPS+Oct) and DMSO (0.1%) as a control and lysed with Qiazol (500 μL; Qiagen) Similarly, whole aortas incubated as previously described were transferred into Qiazol (500 μl; Qiagen) and digested with gentleMACS™ Dissociator (Miltenyi).
Total RNA was quantified using a nanodrop spectrophotometer (Peqlab) and 500 ng were reverse transcribed into cDNA using Omniscript reverse transcriptase (Qiagen). Real time PCR reactions were performed according to the RT^2 SYBR green gene expression assay protocol (Qiagen). RT2 SYBR Green qPCR master mix and premade RT^2 qPCR Primer Assays for mouse Olfr2, Rtp1, Rtp2, Ccl2, Ccl4, Tnf, Nos2 and Gapdh were used. Similarly, real time PCR analysis of hMDMs samples was performed following the RT^2 SYBR green gene expression assay protocol (Qiagen), applying RT^2 SYBR Green qPCR master mix and premade RT^2 qPCR Primer Assays for human OR6A2, TNF, IL-6, NOS2 and GAPDH. The results were calculated applying the 2^−ΔΔCT method^32 using Gapdh/GAPDH as housekeeping gene.
BMDMs, hMDMs, mouse blood leukocytes and whole mount aortas were incubated in culture medium with Oct, (10 μM), LPS, (500 ng/mL) alone or combined (LPS+Oct) for 12h at 37° C. and 5% CO2. […]

Olfr2 [1] = target: T1, Olfr2 (Mus musculus, UniProt Q9QWU6); test: Secreted cytokines in supernatants of stimulated aortas (cytokine bead array); type: cell-based; parameters: Olfr2 expression was confirmed at the protein level on F4/80^+ vascular macrophages; from tissue; host or cells: explanted whole aortas, digested aortic cell suspensions (F4/80+ vascular macrophages) and blood monocytes of Apoe-/- C57BL/6J mice; living Apoe-/- mice for the in vivo study; conditions: octanal 10 μM + LPS 500 ng/mL, 12 h, cytometric bead array
T1 sequence (Q9QWU6 1-327): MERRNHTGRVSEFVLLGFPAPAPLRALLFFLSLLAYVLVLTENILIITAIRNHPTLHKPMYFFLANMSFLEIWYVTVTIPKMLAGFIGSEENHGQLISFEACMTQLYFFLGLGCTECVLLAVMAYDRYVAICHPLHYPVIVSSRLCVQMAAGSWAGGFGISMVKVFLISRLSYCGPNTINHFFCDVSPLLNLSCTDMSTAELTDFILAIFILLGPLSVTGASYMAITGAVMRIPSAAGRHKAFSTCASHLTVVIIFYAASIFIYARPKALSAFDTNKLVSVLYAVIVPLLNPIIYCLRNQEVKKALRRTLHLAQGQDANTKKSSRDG
Protocol: Apoe^−/− mice were fed WD for 2 weeks before sacrifice for aorta explant culture. Whole aortas were incubated in culture medium with DMSO (0.1% as a vehicle), octanal (Oct, 10 μM), LPS (500 ng/mL) alone or octanal and LPS combined (LPS+Oct) for 12 h at 37° C. and 5% CO2. Subsequently, aortas were collected and further processed as below discussed for RNA extraction, and flow cytometry analysis. Culture supernatants were collected, aliquoted, and frozen at −80° C. until further analysis.
Supernatants of stimulated cells and aortic tissue were analyzed by BD CBA Flex Sets (BD Biosciences) for mouse TNFα, CCL2, CCL4, IL-1β, or human TNF, IL6, and IL-1β according to the manufacturer's protocol. Samples were analyzed with LSR-II (BD Biosciences). Data was acquired with FACSDiva software (BD Biosciences) and analyzed with FCAP array software 3.0 (BD Biosciences).

Olfr2 [2] = test: Olfr2 mRNA and protein expression in BMDMs (real time PCR, western blot, flow cytometry); type: cell-based, mouse; conditions: 12 h
Protocol: Olfr2 expression in BMDMs was investigated. Briefly, bone marrow cells from Apoe^−/− mice were stimulated with MCSF (20 ng/ml) for 7 d to generate BMDMs, which were left untreated or incubated with the Olfr2 agonist octanal (Oct, 10 μM), LPS, (500 ng/mL), or with both for 12 h.
as §1
BMDMs, hMDMs, mouse blood leukocytes and whole mount aortas were incubated in culture medium with Oct, (10 μM), LPS, (500 ng/mL) alone or combined (LPS+Oct) for 12h at 37° C. and 5% CO2. After the incubation aortas were cut into small pieces and digested for cell suspension as previously described^18. […]
For Olfr2 protein detection in BMDMs, cells were incubated in culture medium with Oct, (10 μM), LPS, (500 ng/mL) alone or combined (LPS+Oct) for 12h at 37° C. and 5% CO2. […] Total protein content was quantified using DC Protein Assay (Bio-Rad) and solubilized in a volume ratio of 1:1 with Laemmli Buffer (Bio-Rad). […]

Olfr2 [3] = target: T1, Olfr2; test: Inflammatory gene expression (real time PCR) in explanted whole aortas treated with octanal, citral, LPS; type: cell-based; parameters: Olfr2 expression was confirmed at the protein level on F4/80^+ vascular macrophages; from tissue; host or cells: explanted whole aortas, digested aortic cell suspensions (F4/80+ vascular macrophages) and blood monocytes of Apoe-/- C57BL/6J mice; living Apoe-/- mice for the in vivo study; conditions: dose response 3, 10, 30 μM octanal, 12 h

CCCCCCCC=O [octanal]
OR6A2 mRNA expression in hMDMs (OR6A2): further augmented
secretion of TNF, CCL2 and CCL4 protein into supernatant of treated aortas (Olfr2 [1]): enhanced production
secretion of TNF, CCL2 and CCL4 protein into supernatant of treated aortas (Olfr2 [1]; listed as Octanal): enhanced the secretion
Olfr2 mRNA and protein expression in BMDMs (Olfr2 [2]; LPS + octanal combined): potentiated
Olfr2 mRNA and protein expression in BMDMs (Olfr2 [2]; octanal 10 μM): enhanced
octanal concentration at which enhancement of LPS-induced expression peaks (Olfr2 [3]): 3 to 10 µM
